Patent publication US20180360972A1, “THERAPEUTIC COMPOUNDS” (REGENTS OF THE UNIVERSITY OF MINNESOTA, priority 2017, published 2018)
pIC50: −log10 of the molar value. “Also recorded” adds a separate entry of the source.

Columns and labels:
mMC4R = target: T1, mMC4R (Mus musculus, UniProt P56450); experiment: 125I-NDP-MSH competitive binding; conditions: displacement of 125I-NDP-MSH; receptor subtype not printed at b283; read-out: binding affinity IC50
T1 construct: expressed in transfected cells
T1 sequence (P56450 whole entry): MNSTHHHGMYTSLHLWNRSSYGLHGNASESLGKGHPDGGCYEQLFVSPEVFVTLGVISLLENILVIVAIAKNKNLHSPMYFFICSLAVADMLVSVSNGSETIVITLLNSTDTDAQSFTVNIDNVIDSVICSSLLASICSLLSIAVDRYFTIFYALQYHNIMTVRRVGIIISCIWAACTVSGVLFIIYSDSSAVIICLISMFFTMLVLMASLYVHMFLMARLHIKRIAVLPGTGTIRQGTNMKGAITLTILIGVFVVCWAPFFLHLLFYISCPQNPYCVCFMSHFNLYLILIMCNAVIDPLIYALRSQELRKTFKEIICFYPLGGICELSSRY
Method: NDP-MSH was radioiodinated with Na^125I utilizing the chloramine T procedure (26). […] HEK293 cells stably expressing wildtype mMC1R or mMC4R were maintained as described above. Transiently transfected HEK293 cells were used for binding experiments on the mMC3R. Transfection was performed in 10 cm plates using FuGene6 transfection reagent (15 μL/plate; Promega), Opti-Mem medium (1.7 mL/plate; Invitrogen), and mMC3R-Flag DNA (3.33 μg/plate) two days prior to binding experiment. One or two days preceding the competition experiments, cell were plated into 12-well tissue culture plates (Corning Life Sciences, Cat. # 353043) and grown to 90-100% confluency. On the day of the assay, media was removed gently. The cells were treated with a freshly diluted aliquot of non-labeled compound at the in well concentration being tested (ranging from 10^−12 to 10^−4 M as appropriate) in assay buffer (DMEM and 0.1% BSA) and a constant amount of ^1251-NDP-MSH (100,000 cpm/well) and were incubated at 37° C. for one hour. […] The radioactivity was quantified on WIZARD^2 Automatic Gamma Counter (PerkinElmer). […] The non-specific values used for calculations was radioactivity of the 10^−6 M unlabeled NDP-MSH. Data was analyzed by a nonlinear regression method using the PRISM program (v4.0; GraphPad Inc.) to generate and calculate dose-response curves and IC50 values.

wild type mice = experiment: ICV administration, conventional cages, wild type mice; format: in vivo
Method: (§1) All experiments were performed in accordance with the Institutional Animal Care and Use Committee (IACUC) at the University of Minnesota. Female and male littermates with mixed background from C57BL/6J and 129/Sv inbred strains were 8 weeks old at the time of surgeries. Mice were individually housed after surgeries and for the remainder of the experiment. Mice were maintained on a 12 hr light/dark cycle (Lights off was at 11:59 AM) in a temperature controlled room (23-25° C.). In the nocturnal feeding paradigm, mice had free access to normal chow (Harlan Teklad 2018 Diet: 18.6% crude protein, 6.2% crude fat, 3.5% crude fiber, with energy density of 3.1 kcal/g). […] Mice had free access to tap water throughout all the experiments. The cannula placement validation studies and conventional cage studies were performed in standard mouse polycarbonate conventional cages provided by University of Minnesota's Research Animal Resources (RAR). Weekly cage changes were conducted by lab research staff.
(§2) Mice were anesthetize with a mixture of ketamine (100 mg/kg) and xylazine (5 mg/kg) and were positioned in a stereotaxic apparatus (David Kopf Instruments). A 26-gauge cannula (Cat# 81C315GS4SPC; PlasticsOne, Roanoke, Va.) was inserted in the lateral cerebral ventricle at the coordinates 1.0 mm lateral and 0.46 mm posterior to bregma and 2.3 mm ventral to the skull (Franklin, K. B. J. & Paxinos, G. The Mouse Brain in Stereotaxic Coordinates. (Academic Press, 1997)).
Each mouse was administered hPYY and saline on different days following a crossover design in the nocturnal feeding paradigm. In the nocturnal paradigm, compound is administered 2 hours prior to lights out with free access to food and water throughout the entire experiment. There was at least a 4 day washout period between administration to ensure that normal feeding patterns and body weight returned. Food intake and body weight were manually measured 2, 4, and 6 hours after hPYY or saline administration. A mouse with a validated cannula placement for the TSE cage experiments consumed at least 1.0 g more after hPYY administration compared to saline administration 4 hours post-administration.
(§3) As stated above, conventional cage experiments were performed in standard mouse polycarbonate conventional cages. […] All experiments followed a cross-over paradigm in which the mouse received saline and compound on different days with a washout period in between each treatment. Statistical analysis was performed using SPSS V23 software (IBM) using a multivariate general linear model followed by a Bonferroni's post hoc test. Results are presented as Mean±SEM. Statistically significant was considered p<0.05.

male MC3RKO mice = experiment: ICV administration, TSE metabolic cages, male MC3RKO mice; format: in vivo
Method: as §1, §2, §3
In order to more clearly understand the effects of the biased agonism at the MC4R, the effects of administration of CJL-5-58 was explored in MC3R knockout (KO) mice and MC4RKO mice. […] Adverse reactions included two mice dying after the 5 nmol dose. […] The large error in activity may serve as an indication of toxicity. It is currently difficult to decipher whether the adverse reactions observed are due to paradigm effects, genotype difference, or compound toxicity.

[1] = fasting-refeeding, time after administration
[2] = nocturnal free-feeding paradigm, 5.0 nmol ICV
[3] = nocturnal paradigm, 1 nmol dose

Question: With CC(=O)N[C@@H](Cc1cnc[nH]1)C(=O)N[C@H](Cc1ccccc1)C(=O)N[C@@H](CCCNC(=N)N)C(=O)N[C@@H](Cc1c[nH]c2ccccc12)C(=O)NCCCOCCOCCOCCCNC(=O)COCC(=O)N[C@@H](Cc1cnc[nH]1)C(=O)N[C@H](Cc1ccc2ccccc2c1)C(=O)N[C@@H](CCCNC(=N)N)C(=O)N[C@@H](Cc1c[nH]c2ccccc12)C(N)=O [CJL-5-58, Ac-His-DPhe-Arg-Trp-(PEDG20)-His-DNal(2′)-Arg-Trp-NH2] as the compound, how does the pIC50 (mMC4R) read?
Answer: The pIC50 was 7.85.

Question: And the adverse effects (wild type mice; ICV 2.5 nmols and 5.0 nmols, conventional cages)?
Answer: Its adverse effects is “no signs of adverse effects”.

Question: What about the “change in body weight vs saline, female mice” value (wild type mice; fasting-refeeding) of the same compound?
Answer: Its value is “Only the 2 hour time point was significant”.

Question: What about the “change in body weight vs saline, male mice” value (wild type mice; fasting-refeeding) of the same compound?
Answer: Its value is “significant difference was observed in the change in weight of the male mice after compound administration at time points 2, 4, 6, 8, and 24 hours”.

Question: What about the food intake (wild type mice; fasting-refeeding after 22 hour fast, ICV dose response) of the same compound?
Answer: Its food intake is “dose dependent decrease in food intake; also recorded: reduce food intake”.

Question: And the “food intake vs saline, female mice (time points of significant decrease)” value (wild type mice; [1])?
Answer: Its value is 2 and 4 hours.

Question: What about the “food intake vs saline, male mice” value (wild type mice; [1]) of the same compound?
Answer: Its value is “Significant decreased food intake was observed at 2, 4, 6, and 8 hours; also recorded: Significant decreases in food intake were observed at 2, 4, 6, and 8 hours”.

Question: And the “body weight vs saline” value (wild type mice; [2])?
Answer: Its value is “no statistically significant effect”.

Question: What about the “food intake vs saline” value (wild type mice; [2]) of the same compound?
Answer: Its value is “no statistically significant effect”.

Question: What about the RER vs saline (male MC3RKO mice; fasting-refeeding, 0.5 nmol) of the same compound?
Answer: The RER vs saline was “significant increase in RER at time point 24 hours”.

Question: What about the “other parameters vs saline” value (male MC3RKO mice; fasting-refeeding, 0.5 nmols) of the same compound?
Answer: Its value is “No other parameters were significantly affected”.

Question: What about the RER vs saline (male MC3RKO mice; fasting-refeeding, 1 nmol) of the same compound?
Answer: The RER vs saline was “significantly reduced at 2 and 3 hours”.

Question: And the “energy expenditure vs saline” value (male MC3RKO mice; fasting-refeeding, 1 nmol)?
Answer: The value was “Significant reductions in energy expenditure were observed in the fasting paradigm at time points 1 and 2 hours”.

Question: What about the “food intake vs saline” value (male MC3RKO mice; fasting-refeeding, 1.0 nmol) of the same compound?
Answer: Its value is “Significant reduction in food intake was observed at 2 and 4 hour time points”.

Question: And the “adverse reactions / toxicity” value (male MC3RKO mice; fasting-refeeding, 1.0 or 0.5 nmols)?
Answer: Its value is “some minor signs of adverse reactions; also recorded: Some toxicity was observed”.

Question: And the adverse reactions (male MC3RKO mice; [3])?
Answer: Its adverse reactions is “No adverse reactions were observed”.

Question: And the “effects on measured parameters vs saline” value (male MC3RKO mice; [3])?
Answer: Its value is “no significant effects were observed”.

Question: And the RER vs saline (male MC3RKO mice; nocturnal paradigm, 2.5 nmol)?
Answer: The RER vs saline was “significant increased RER was observed 18, 19, and 24 hours”.

Question: What about the “energy expenditure vs saline” value (male MC3RKO mice; nocturnal paradigm, 2.5 nmol) of the same compound?
Answer: Its value is “significant reduced 1-8 and 13 hours post-treatment”.

Question: What about the “energy expenditure vs saline” value (male MC3RKO mice; nocturnal paradigm, 5 nmol) of the same compound?
Answer: The value was “significantly reduced at time points 1-3 hrs”.

Question: What about the “food intake vs saline” value (male MC3RKO mice; nocturnal paradigm, 5 nmol) of the same compound?
Answer: Its value is “decreased at time points 2-12 hours”.

Question: And the “number of mice dying” value (male MC3RKO mice; nocturnal paradigm, 5 nmol dose)?
Answer: The value was “two”.

Question: What about the activity vs saline (male MC3RKO mice; nocturnal paradigm, 5 nmols) of the same compound?
Answer: The activity vs saline was “trended towards being lowered (p=0.069)”.

Question: And the RER vs saline (male MC3RKO mice; nocturnal paradigm, 5 nmols (dose not restated for CJL-5-58))?
Answer: Its RER vs saline is “significantly decreased at time points 1-5, 8 and 12 hours”.

Question: And the “adverse reactions / toxicity” value (male MC3RKO mice; nocturnal paradigm, 2.5 to 5 nmols)?
Answer: Its value is “adverse reactions were also observed at the 2.5 and 5 nmol concentrations; also recorded: Some toxicity was observed”.
